System: panel of 22 biotinylated chemokines
Assay: Saturation (NNK) mutagenesis phage-display selection against biotinylated chemokines, enrichment by NGS
Assay type: binding, human
Settings: two-sided Dunnett's test; for log2E compared to parental HD2, CXnC chemokines: 7 CXnC chemokines
Excerpt: 81-mer mutant oligonucleotides replacing NNK at each of the 16 peptide encoding residues were designed with the sequence arms 5’-[…], and […]-3’ at respective ends to enable amplification and cloning. Oligonucleotides (Genscript) were individually amplified and cloned into plasmid prSTOP4Nsi (described in[37]). prSTOP4Nsi was amplified using primers (Sigma): […]
Oligonucleotides were amplified using primers (Sigma): oligo_fwd: 5’-[…] and oligo_rev2: 5’-[…]. The PCR products were cloned into prSTOP4Nsi plasmid using NEB Builder HiFi Assembly (E5520, NEB) following instructions of the manufacturer. The vector pool was used to transform electrocompetent ElectroMAX™ DH5α-E™ cells (11319019, Invitrogen). Plasmid DNA was harvested by MaxiPrep (GeneJet Plasmid Maxiprep Kit (K0491, Thermo Scientific)). DNA was transformed into SS320 phage display electrocompetent cells (60512, Lucigen), following the manufacturer’s protocol. Following electroporation, cells were resuspended in 950 μL recovery media and transferred to 50 mL Falcon tubes. 100 μL 10^11 CFU/mL M13KO7 helper phage (N0315S, NEB) was added, and tubes shaken at 37 °C, 220 RPM, 1 h. 1 mL recovery culture was added to 2YT medium containing +50ug/mL carbenicillin (C9231, Sigma) and 25ug/mL kanamycin (K1377, Sigma), and grown overnight at 37 °C, 220 RPM. Phage was precipitated from culture supernatant by adding 22.5 mL of supernatant to 4.5 mL 20% PEG 8000 (89510, Sigma)/2.5 M NaCl (S9625, Sigma), incubating on ice for 30 min, and centrifuging at 12857 g, 4 °C, 10 min. The phage pellet was resuspended in 1 mL of PBT (PBS (P4417, Sigma), BSA (A7030, Sigma) 0.20%, Tween 20 (P1379, Sigma) 0.05%). Undissolved particulate matter was removed by centrifugation at 15871 g, 4 °C, 10 min. Glycerol (G5516, Sigma, 10% final (v/v) was added, and aliquots stored at −80 °C. A schematic of phage-display library construction is provided in Supplementary Fig. 12.
Phage display screening was performed as described. Experiments were performed in 96-well plates (Greiner Bio-One, 655180). Biotinylated chemokines or complement C5A (1μg, Almac or Protein Foundry) were incubated overnight at 4 °C with shaking at 250 RPM with 5μl streptavidin-coated magnetic beads (Dynabeads™ M-280 Streptavidin, Invitrogen, 11205D) in 100 μl PBS. Chemokine-bound beads were blocked for two hours in 200μl blocking buffer (PBS (phosphate-buffered saline, Sigma, P4417) + 0.2% BSA (bovine serum albumin, Sigma, A7030) with shaking at 250 RPM. Phage library (100μL, 10^10 CFU/mL) was bound to blocked beads for two hours at room temperature with shaking at 250 RPM. Beads were washed 15 times with PT buffer (PBS + 0.05% Tween 20 (Sigma, P1379)) to remove unbound phage then transferred to a fresh plate. Beads were incubated with 100μL phage-resistant Omnimax E. coli (Invitrogen, A10469) at optical density (OD600) 0.6-0.8, shaken at 37 °C for 30 min. Following this 10 µL M13K07 helper phage (NEB, N0315S, final concentration 10^10 CFU/mL) was added and shaken at 37 °C for 45 min. Cells were transferred to 1 mL 2YT medium (at pH7, MP Biomedicals™, 113012031, supplemented with 150 µg/mL carbenicillin (Sigma, C9231) and 75 µg/mL kanamycin (Sigma, K1377) in a 96-deep well block with V-bottom (Corning, CLS3960) and grown with overnight shaking at 37 °C, 200 RPM. Plates were either centrifuged at 2000g (4 °C, 30 min) or transferred to screw cap tubes and pelleted by centrifugation at 4000 g and 4 °C for 15 min. 540 µL of supernatant was transferred to a new 96-deep well plate, 60 µL of 10×PBT (10×PBS + 2% BSA + 0.5% Tween 20) added and stored at 4 °C for subsequent rounds. Phage display was carried out for three rounds. A schematic of phage-display library screening is provided in Supplementary Fig. 12.
We amplified inserts from the input library and from the selected phage population directly from phage by PCR using primers: 5’-[…] and 5’-[…] (Life Technologies). […]

In the case of “EEDDWTAYAPLTCYFT [HD2Y5W, HD2 point mutant]”, the “log2E compared to parental HD2, CXnC chemokines” value was “significant improvement”.

In the case of “EEDDYWAYAPLTCYFT [HD2T6W, HD2 point mutant]”, the “log2E compared to parental HD2, CXnC chemokines” value was “significant improvement” and the “log2E compared to parental HD2, all chemokines” value (three selection rounds, 22 chemokines) was “significantly improved”.

Reference: article PMC11969024, “Development of chemokine network inhibitors using combinatorial saturation mutagenesis” (Communications Biology, 2025)
